Laboratory results: patent US20240350475A1, “TR[…] CARD[…] BY SARS-COV-2 SPIKE PROTEIN UNDER OBESITY” (priority 2023, published 2024)
Entries after “also recorded” stand apart in the source; their conditions may differ.

Assays:
HEK_Spike cells = test: Palmitic acid (PA)-induced lipotoxicity assay in Spike cells, with or without inhibitors (PI/Hoechst cell viability); assay type: cell-based, Human; conditions: for PA-induced Spike protein-exaggerated lipotoxicity (necrosis, cell viability): Spike cells, then 750 M PA 24 h, DMEM 5% FBS
Protocol: (§1) The HEK293, HEK_pcDNA, and HEK_Spike cells were cultured in a 96-well plate and reached to 80% confluence on the next day before treatment. The cells were kept in DMEM medium with 5% FBS during the entire treatment procedure. The cells were treated with PA (free BSA) in various concentrations from 250 to 1000 M for 24, 48, or 72 h.
(§2) For treatment control groups, the cells were treated by the same concentrations of BSA in parallel. For the inhibitory assay, the cells were pre-incubated by autophagic inhibitors (125 M trigonelline (TRG), or 10 M Wortmannin), or a ferropotosis inhibitor (ferrostatin, 2 M), or an […] (necrostatin-1, 10 M) in DMEM medium with 5% FBS for 2 h, followed by 750 M PA treatment for 24 h. The cells were then co-stained by Propidium Iodide (PI) and Hoechst 33342 NucBlue Live Cell Stain dye (ThermoFisher) to show the dead and live cells. The dyes were excited at 535 nm and 405 nm, respectively. TRG may be provided over a range of concentration such as 50 to 300 M, 60 to 290, 70 to 280, 80 to 270, 90 to 260, 100 to 250, 110 to 240, 120 to 230, 130 to 220, 140 to 210, 150 to 200, 160 to 190, 170 to 180, as well as sub ranges such as from 100M to 200 M, 125M to 175 M, etc., also include individual concentrations, such as 125M, 150 M, 175M, etc. Wortmannin may be provided over a range of concentrations from 5 to 100, 10 to 90, 15 to 80, 20 to 70, 25 to 60, 30 to 50 M, etc., including subranges and individual concentrations within these ranges.
Images were acquired and cell viability analyses were performed using an ImagXpress Pico Automated system.

[1] = test system: Human dermal microvascular ECs (hDMVECs); assay type: cell-based
H9C2 cells [2] = test: Spike-exosome induced mitochondrial morphology change in H9C2 cells (MitoTracker, confocal); assay type: cell-based; conditions: spike-exo 150 μg exosomal proteins in 1 ml medium plus TRG 125 μM, 5 days
H9C2 cells [3] = test system: H9C2 cells
[4] = test system: HEK293 and HEK_pcDNA cells; test: Palmitic acid (PA)-induced lipotoxicity assay in control cells; assay type: cell-based, Human; conditions: PA overload; HEK293 (mock) and pcDNA cells; DMEM 5% FBS
Protocol: as §1
as §2, with “Wortmannin may be provided over a range of concentrations from 5 to 100, 10 to 90, 15 to 80, 20 to 70, 25 to 60, 30 to 50 M, etc., including subranges and individual concentrations within these ranges.” left out

For `CCOC(=O)c1ccc(NC2CCCCC2)c(N)c1` [ferrostatin], the “PA-induced Spike protein-exaggerated lipotoxicity (necrosis, cell viability)” value (HEK_Spike cells; pre-incubated with ferrostatin 2 M 2 h) was “significantly mitigated” and the “PA-induced Spike protein-exaggerated lipotoxicity (necrosis, cell viability)” value (HEK_Spike cells; pre-incubated with ferrostatin 2 M 2 h, listed as ferrostatin 1) was “can be suppressed”.

In the case of `C[n+]1cccc(C(=O)[O-])c1` [TRG, Trigonelline], the “PA-induced Spike protein-exaggerated lipotoxicity (necrosis, cell viability)” value (HEK_Spike cells; pre-incubated with 125 M TRG 2 h) was “can attenuate; also recorded: can be suppressed; also recorded: significantly mitigated”, the “PA-induced Spike protein-exaggerated lipotoxicity (necrosis, cell viability)” value (HEK_Spike cells; pre-incubated with 125 M TRG 2 h, listed as trigonelline) was “could be attenuated” and the “cellular ROS levels” value [1] was “attenuated”. The “density of mitochondria decreased by Spike-EVs plus LDL-c” value [1] was “could restore”, the “diameter of mitochondria decreased by Spike-EVs plus LDL-c” value [1] was “could restore” and the “spike-exo induced mitochondrial fusion (mitochondrial morphology)” value (H9C2 cells [2]) was “can reverse”. For the same molecule, the “PA-induced Spike protein-exaggerated lipotoxicity (cell viability)” value (H9C2 cells [3]) was “could be reversed”.

`CCCCCCCCCCCCCCCC(=O)O` [PA, Palmitic acid] was tested, and the “PA-induced cell death (lipotoxicity)” value [4] was “induced cell death”, the “effect of PA on the Spike cells” value (HEK_Spike cells; 500 M and 250 M PA, after 72 h treatment) was “modest or mild effect” and the “PA-induced cell death (lipotoxicity)” value (HEK_Spike cells; Spike cells versus mock and pcDNA cells, PA 750 or 1000 M, 24 to 72 h) was “significantly augmented”.
